The record followed here is patent US9617244B2, “Antibacterial quinoline derivatives” (JANSSEN PHARMACEUTICA NV, priority 2012, dated 2017).

Series [1] deals with Mycobacterium smegmatis (ATCC607). As to the kind of experiment: In-vitro anti-bacterial activity against strain M. Smegmatis ATCC607. As to conditions: 90% inhibitory concentration for bacterial growth, Alamar Blue fluorescence; for IC90 MSM 607: 48 hours; for IC90: Mycolicibacterium smegmatis, ATCC607, 48 h, read-out: IC90 MSM 607. The series is classed as cell-based. Put shortly:
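IC90 (μg/ml) derived from Alamar Blue fluorescence (530/590 nm) after 48 h growth at 37 °C under 5% CO2. About 250 CFU per well in Mueller-Hinton broth faced five-fold serial compound dilutions in BSA-containing wells.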

The subject of series [2] is Staphylococcus aureus (ATCC29213). As to the kind of experiment: In-vitro anti-bacterial activity, microtitre plate assay, IC90 determination (non-mycobacterial strains). Type of series: cell-based. To be noted: 90% inhibitory concentration for bacterial growth, resazurin fluorescence; for IC90 STA B29213: 24 hours; for IC90: Staphylococcus aureus, ATCC29213, 24 h, read-out: IC90 STA B29213. Put shortly:
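Growth inhibition measured fluorometrically with resazurin (530/590 nm) after overnight 37 °C incubation under normal atmosphere. Bacteria added at roughly 100 TCID50 per well in Mueller-Hinton broth to five-fold compound dilution series; IC90 reported in μg/ml.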
On the technique in general: Resazurin is reduced to fluorescent resorufin, in cell work by metabolically active cells.

SMILES strings stand for the structures. In brackets after ≈: the same amount, converted by molar mass.

The melting point is the temperature, or range, at which the solid turns liquid. As to `C=CCC1CNCCC1(O)C(c1cccc(Cl)c1)c1cc2cc(Cl)ccc2nc1OC` (stereo not drawn) [Compound 395], the melting point was 150 to 152 °C. Also, the “IC90 MSM 607” value in series [1] is 2.89 µg/mL (≈ 6.32 µM). For the same compound, in series [2], the “IC90 STA B29213” value was determined as 5.76 µg/mL (≈ 12.6 µM).
One may read the IC90 as the point of the concentration-response curve where the effect stands at 90%. For `COc1nc2ccc(S(C)(=O)=O)cc2cc1C(c1ccc(Cl)cc1)C1(O)CCNCC1(C)C` (stereo not drawn) [Compound 397], the melting point turned out to be 180 °C. Further, the IC90 in series [1] was above 12.3 µg/mL. For the same compound, the IC90 in series [2] is above 12.3 µg/mL.
With `COc1nc2ccc(F)cc2cc1C(c1ccc(SC)cc1)C1(O)CCNC(c2ccc(F)cc2C)C1` (stereo not drawn) [Compound 406], the melting point is 206 °C. The “IC90 MSM 607” value in series [1] was 2.61 µg/mL (≈ 5.01 µM). Also, in series [2], the IC90 is 3.29 µg/mL (≈ 6.32 µM).
Take `COc1nc2ccc(F)cc2cc1C(c1ccc(S(C)(=O)=O)cc1)C1(O)CCNC(c2ccc(F)cc2C)C1` (stereo not drawn) [Compound 417]: the melting point was 150 °C. Further, the IC90 in series [1] is above 13.9 µg/mL. The IC90 in series [2] is above 13.9 µg/mL.
For the compound `COc1nc2ccc(F)cc2cc1C(c1ccc(S(C)(=O)=O)cc1)C1(O)CCNC(c2ccc(F)cc2C)C1` (stereo not drawn) [Compound 419], the melting point was found to be 154 °C. Moreover, in series [1], the “IC90 MSM 607” value was found to be 11.03 µg/mL (≈ 20 µM). Further, the “IC90 STA B29213” value in series [2] was 11.03 µg/mL (≈ 20 µM).
In the case of `COc1nc2ccc(Cl)cc2cc1C(c1ccc(Cl)cc1)C1(O)CCNCC1C` (stereo not drawn) [Compound 423], the melting point was determined as 174 °C. Besides, the “IC90 MSM 607” value in series [1] was determined as 3.43 µg/mL (≈ 7.95 µM). Also, the “IC90 STA B29213” value in series [2] is 5.43 µg/mL (≈ 12.6 µM).
For `COc1nc2ccc(Br)cc2cc1C(c1ccccc1)C1(O)CCNCC1C` (stereo not drawn) [Compound 425], the melting point is 125 °C. Moreover, in series [1], the 90% effect concentration (IC90) is above 11.1 µg/mL. Further, the IC90 in series [2] was above 11.1 µg/mL.
For `COc1nc2ccc(Br)cc2cc1C(c1ccccc1)C1(O)CCNCC1C` (stereo not drawn) [Compound 426], the melting point was determined as 174 °C. Also, the “IC90 MSM 607” value in series [1] was above 11.09 µg/mL. Also, in series [2], the “IC90 STA B29213” value is above 11.09 µg/mL.
The compound `COc1nc2ccc(Cl)cc2cc1C(c1ccc(Cl)cc1)C1(O)CCNCC1Cc1ccccn1` (stereo not drawn) [Compound 433] yielded a melting point of 114 °C. In addition, in series [1], the IC90 is 4.04 µg/mL (≈ 7.95 µM). Also, the “IC90 STA B29213” value in series [2] is 6.40 µg/mL (≈ 12.6 µM).
The compound `COc1nc2ccc(Cl)cc2cc1C(c1ccc(Cl)cc1)C1(O)CCNCC1Cc1ccccn1` (stereo not drawn) [Compound 434] yielded a melting point of 197 °C. Besides, the “IC90 MSM 607” value in series [1] was 3.21 µg/mL (≈ 6.31 µM). The “IC90 STA B29213” value in series [2] stood at 3.21 µg/mL (≈ 6.31 µM).
For `COc1nc2ccc(Cl)cc2cc1C(c1ccc(Cl)cc1)C1(O)CCNC(CO)C1` (stereo not drawn) [Compound 435], the melting point is 140 °C. Besides, in series [1], the IC90 came out at 3.99 µg/mL (≈ 8.92 µM). Besides, in series [2], the IC90 is 5.63 µg/mL (≈ 12.6 µM).
`O=c1[nH]c2ccc(Cl)cc2cc1C(c1ccc(Cl)cc1)C1(O)CCNC(CO)C1` (stereo not drawn) [Compound 446] registered a melting point of 210 °C. In addition, the IC90 in series [1] turned out to be 5.46 µg/mL (≈ 12.6 µM). Further, in series [2], the “IC90 STA B29213” value was found to be 10.89 µg/mL (≈ 25.1 µM).
Compound `COc1nc2ccc(S(C)(=O)=O)cc2cc1C(c1ccc(Cl)cc1)C1(O)CCNCC1Cc1cccc[n+]1[O-]` (stereo not drawn) [Compound 447] had a melting point of 234 °C. In series [1], the “IC90 MSM 607” value is above 14.27 µg/mL. Further, in series [2], the “IC90 STA B29213” value was above 14.27 µg/mL.
Regarding `COc1nc2ccc(S(C)(=O)=O)cc2cc1C(c1ccc(Cl)cc1)C1(O)CCNCC1Cc1cccc[n+]1[O-]` (stereo not drawn) [Compound 448], the melting point came out at 182 °C. In addition, the “IC90 MSM 607” value in series [1] was above 14.27 µg/mL. Further, in series [2], the “IC90 STA B29213” value is above 14.27 µg/mL.
In the case of `COc1nc2ccc(Cl)cc2cc1C(c1ccc(Cl)cc1)C1(O)CCNCC1F` (stereo not drawn) [Compound 449], the melting point came to 190 °C. For the same compound, the “IC90 MSM 607” value in series [1] stood at 2.75 µg/mL (≈ 6.32 µM). In series [2], the “IC90 STA B29213” value was 5.48 µg/mL (≈ 12.6 µM).
The corresponding values for `COc1nc2ccc(Cl)cc2cc1C(c1ccc(Cl)cc1)C1(O)CCNCC1F` (stereo not drawn) [Compound 450] are 200 °C, 4.35 µg/mL (≈ 9.99 µM) and 8.69 µg/mL (≈ 20 µM).
